The results in this text go back to US7846959B2, “Raf modulators and methods of use” (Exelixis, Inc., priority 2004, dated 2010).

For one assay, the target named is B-Raf (Homo sapiens, UniProt P15056). The experiment in a line: Luciferase-coupled chemiluminescence kinase assay (ATP consumption), B-Raf. It counts as biochemical. In outline:
(§1)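 Raf enzyme ([…]) pre-incubated with compound 30 minutes at room temperature in 20 mM Tris pH 7.5, 10 mM MgCl2, 0.03% TX-100, 1 mM DTT, then reacted with ATP for 3 hrs at ambient temperature. Remaining ATP quantified by luciferase-luciferin chemiluminescence, consumption held at 25-60%; IC50 reported.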

In a further assay the target is c-Raf (Homo sapiens, UniProt P04049). As to the kind of experiment: Luciferase-coupled chemiluminescence kinase assay (ATP consumption), c-Raf. In kind it is biochemical. In short, it runs like this: as §1
The mark [1] stands for this setting: read-out: bRaf (inhibition indicated as IC50).
Setting [2] is: read-out: cRaf-1 (inhibition indicated as IC50).

Where two headings read alike, the source gives them in different places.

Chain of c-Raf (P04049 whole entry): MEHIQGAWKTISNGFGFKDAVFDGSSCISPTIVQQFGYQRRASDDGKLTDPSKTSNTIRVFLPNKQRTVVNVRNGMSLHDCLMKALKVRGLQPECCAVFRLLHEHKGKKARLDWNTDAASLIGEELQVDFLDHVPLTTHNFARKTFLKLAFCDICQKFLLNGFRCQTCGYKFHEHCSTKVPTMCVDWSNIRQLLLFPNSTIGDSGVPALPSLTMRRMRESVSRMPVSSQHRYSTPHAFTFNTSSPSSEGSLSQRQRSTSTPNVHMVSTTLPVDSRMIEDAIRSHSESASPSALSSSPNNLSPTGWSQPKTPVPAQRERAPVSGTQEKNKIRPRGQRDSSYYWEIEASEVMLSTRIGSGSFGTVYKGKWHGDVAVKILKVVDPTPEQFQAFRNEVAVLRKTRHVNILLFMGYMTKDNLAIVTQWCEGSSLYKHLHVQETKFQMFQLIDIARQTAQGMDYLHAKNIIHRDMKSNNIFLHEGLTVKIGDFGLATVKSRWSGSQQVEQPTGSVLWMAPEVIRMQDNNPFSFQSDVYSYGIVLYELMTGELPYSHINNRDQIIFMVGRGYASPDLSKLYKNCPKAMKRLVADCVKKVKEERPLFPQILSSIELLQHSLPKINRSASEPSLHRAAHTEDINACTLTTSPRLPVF
Chain of B-Raf (P15056 whole entry): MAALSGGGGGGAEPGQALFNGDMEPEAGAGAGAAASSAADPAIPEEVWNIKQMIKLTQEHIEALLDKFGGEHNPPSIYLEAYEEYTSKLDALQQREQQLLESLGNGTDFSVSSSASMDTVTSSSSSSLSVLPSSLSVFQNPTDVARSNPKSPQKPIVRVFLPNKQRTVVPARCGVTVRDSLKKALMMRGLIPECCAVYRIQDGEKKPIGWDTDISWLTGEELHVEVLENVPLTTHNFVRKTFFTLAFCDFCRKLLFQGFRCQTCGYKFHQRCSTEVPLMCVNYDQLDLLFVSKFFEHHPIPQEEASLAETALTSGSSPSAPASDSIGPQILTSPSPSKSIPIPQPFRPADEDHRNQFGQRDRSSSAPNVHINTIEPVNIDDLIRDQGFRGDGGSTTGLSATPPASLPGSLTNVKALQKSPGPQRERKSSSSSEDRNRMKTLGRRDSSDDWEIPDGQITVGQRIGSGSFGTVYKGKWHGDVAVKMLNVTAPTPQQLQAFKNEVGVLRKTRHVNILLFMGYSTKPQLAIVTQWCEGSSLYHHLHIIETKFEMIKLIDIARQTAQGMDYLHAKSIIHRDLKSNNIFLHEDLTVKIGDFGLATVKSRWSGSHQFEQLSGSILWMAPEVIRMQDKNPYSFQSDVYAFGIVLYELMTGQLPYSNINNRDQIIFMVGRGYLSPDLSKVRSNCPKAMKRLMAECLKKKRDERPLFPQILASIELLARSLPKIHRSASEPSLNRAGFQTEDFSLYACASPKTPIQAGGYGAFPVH

For the compound `CN(CCOC(=O)Nc1nc2cc(C3(O)c4ccccc4C(=O)N3c3cccc(Cl)c3F)ccc2[nH]1)Cc1ccccc1` (stereo not drawn) [Entry 297, 2-[methyl(phenylmethyl)amino]ethyl {5-[2-(3-chloro-2-fluorophenyl)-1-hydroxy-3-oxo-2,3-dihydro-1H-isoindol-1-yl]-1H-benzimidazol-2-yl}carbamate], the IC50 on B-Raf (setting [1]) and on c-Raf (setting [2]) was under 0.1 µM throughout.
Regarding `CCNC(=O)Nc1nc2cc(C3(O)c4ccccc4C(=O)N3Cc3ccccc3)ccc2[nH]1` (stereo not drawn) [Entry 149, N-ethyl-N′-{5-[1-hydroxy-3-oxo-2-(phenylmethyl)-2,3-dihydro-1H-isoindol-1-yl]-1H-benzimidazol-2-yl}urea], the IC50 on B-Raf (read-out: bRaf IC50) and at c-Raf (read-out: cRaf-1 IC50) was under 0.1 µM in each case.
Turning to `N#Cc1cccc(N2C(=O)c3ccccc3C2(O)c2ccc3c(c2)NC(=O)CO3)c1` (stereo not drawn) [Entry 71, 3-[1-hydroxy-3-oxo-1-(3-oxo-3,4-dihydro-2H-1,4-benzoxazin-6-yl)-1,3-dihydro-2H-isoindol-2-yl]benzonitrile], the IC50 at B-Raf (read-out: bRaf IC50) and on c-Raf (read-out: cRaf-1 IC50) was 1 to 10 µM in each case.
Take `COC(=O)Nc1nc2cc(C3(O)c4ccccc4C(=O)N3c3cccc(C(C)C)c3)ccc2[nH]1` (stereo not drawn) [Entry 204, methyl (5-{1-hydroxy-2-[3-(1-methylethyl)phenyl]-3-oxo-2,3-dihydro-1H-isoindol-1-yl}-1H-benzimidazol-2-yl)carbamate]: the IC50 at B-Raf (read-out: bRaf IC50) and on c-Raf (read-out: cRaf-1 IC50) was under 0.1 µM in each case.
For the compound `C#Cc1cccc(N2C(=O)c3ccccc3C2(O)c2ccc3c(c2)NC(=O)CO3)c1` (stereo not drawn) [Entry 77, 6-[2-(3-ethynylphenyl)-1-hydroxy-3-oxo-2,3-dihydro-1H-isoindol-1-yl]-2H-1,4-benzoxazin-3(4H)-one], the IC50 at B-Raf (read-out: bRaf IC50) and at c-Raf (read-out: cRaf-1 IC50) was 0.1 to 1 µM in each case.
As to `COC(=O)Nc1nc2cc(C3(O)c4ccccc4C(=O)N3C(C)c3cc(Cl)cs3)ccc2[nH]1` (stereo not drawn) [Entry 233, methyl (5-{2-[1-(4-chloro-2-thienyl)ethyl]-1-hydroxy-3-oxo-2,3-dihydro-1H-isoindol-1-yl}-1H-benzimidazol-2-yl)carbamate], the IC50 on B-Raf (read-out: bRaf IC50) and on c-Raf (read-out: cRaf-1 IC50) was under 0.1 µM each time.
Consider `C#Cc1cc(C)cc(N2C(=O)c3ccccc3C2(O)c2ccc3[nH]c(NC(=O)OC)nc3c2)c1` (stereo not drawn) [Entry 383, methyl {5-[2-(3-ethynyl-5-methylphenyl)-1-hydroxy-3-oxo-2,3-dihydro-1H-isoindol-1-yl]-1H-benzimidazol-2-yl}carbamate], for which the IC50 on B-Raf (setting [1]) and on c-Raf (setting [2]) was under 0.1 µM throughout.
For the compound `COC(=O)Nc1nc2cc(C3(O)c4ccccc4C(=O)N3c3cc(C)cc(C)c3)ccc2[nH]1` (stereo not drawn) [Entry 141, methyl {5-[2-(3,5-dimethylphenyl)-1-hydroxy-3-oxo-2,3-dihydro-1H-isoindol-1-yl]-1H-benzimidazol-2-yl}carbamate], the IC50 on B-Raf (read-out: bRaf IC50) and on c-Raf (read-out: cRaf-1 IC50) was under 0.1 µM throughout.
For the compound `COC(=O)Nc1nc2cc(C3(O)c4ccccc4C(=O)N3c3cccc(I)c3)ccc2[nH]1` (stereo not drawn) [Entry 203, methyl {5-[1-hydroxy-2-(3-iodophenyl)-3-oxo-2,3-dihydro-1H-isoindol-1-yl]-1H-benzimidazol-2-yl}carbamate], the IC50 at B-Raf (read-out: bRaf IC50) and on c-Raf (read-out: cRaf-1 IC50) was under 0.1 µM each time.
For `COC(=O)Nc1nc2cc(C3(O)c4ccccc4C(=O)N3c3cc(F)cc(Cl)c3)ccc2[nH]1` (stereo not drawn) [Entry 239, methyl {5-[2-(3-chloro-5-fluorophenyl)-1-hydroxy-3-oxo-2,3-dihydro-1H-isoindol-1-yl]-1H-benzimidazol-2-yl}carbamate], the IC50 at B-Raf (read-out: bRaf IC50) and at c-Raf (read-out: cRaf-1 IC50) was under 0.1 µM throughout.
With `COC(=O)Nc1nc2cc(C3(O)c4ccccc4C(=O)N3C(C)c3cc(C)cs3)ccc2[nH]1` (stereo not drawn) [Entry 209, methyl (5-{1-hydroxy-2-[1-(4-methyl-2-thienyl)ethyl]-3-oxo-2,3-dihydro-1H-isoindol-1-yl}-1H-benzimidazol-2-yl)carbamate], the concentration for half-maximal inhibition (IC50) on B-Raf (read-out: bRaf IC50) and on c-Raf (read-out: cRaf-1 IC50) was under 0.1 µM each time.
As for `Cc1ccccc1N1C(=O)c2ccccc2C1(O)c1ccc2c(c1)NC(=O)CO2` (stereo not drawn) [Entry 90, 6-[1-hydroxy-2-(2-methylphenyl)-3-oxo-2,3-dihydro-1H-isoindol-1-yl]-2H-1,4-benzoxazin-3(4H)-one], the IC50 at B-Raf (read-out: bRaf IC50) and at c-Raf (read-out: cRaf-1 IC50) was 1 to 10 µM each time.
With `COC(=O)Nc1nc2cc(C3(O)c4ccccc4C(=O)N3C(C)c3sccc3Cl)ccc2[nH]1` (stereo not drawn) [Entry 241, methyl (5-{2-[1-(3-chloro-2-thienyl)ethyl]-1-hydroxy-3-oxo-2,3-dihydro-1H-isoindol-1-yl}-1H-benzimidazol-2-yl)carbamate], the IC50 on B-Raf (read-out: bRaf IC50) and on c-Raf (read-out: cRaf-1 IC50) was 1 to 10 µM each time.
Take `O=C1COc2ccc(C(=O)c3ccccc3-c3nc(-c4ccccc4)no3)cc2N1` [Entry 48, 6-{[2-(3-phenyl-1,2,4-oxadiazol-5-yl)phenyl]carbonyl}-2H-1,4-benzoxazin-3(4H)-one]: the IC50 on B-Raf (read-out: bRaf IC50) and at c-Raf (read-out: cRaf-1 IC50) was at least 10 µM in each case.
Take `COC(=O)Nc1nc2cc(C3(O)c4ccccc4C(=O)N3Cc3cccc(Cl)c3)ccc2[nH]1` (stereo not drawn) [Entry 122, methyl (5-{2-[(3-chlorophenyl)methyl]-1-hydroxy-3-oxo-2,3-dihydro-1H-isoindol-1-yl}-1H-benzimidazol-2-yl)carbamate]: the IC50 at B-Raf (read-out: bRaf IC50) and at c-Raf (read-out: cRaf-1 IC50) was under 0.1 µM in each case.
Turning to `COC(=O)Nc1nc2cc(C3(O)c4ccccc4C(=O)N3[C@H](C)c3ccccc3)ccc2[nH]1` (stereo partly drawn) [Entry 104, methyl (5-{1-hydroxy-3-oxo-2-[(1R)-1-phenylethyl]-2,3-dihydro-1H-isoindol-1-yl}-1H-benzimidazol-2-yl)carbamate], the IC50 on B-Raf (read-out: bRaf IC50) and at c-Raf (read-out: cRaf-1 IC50) was under 0.1 µM each time.
As to `O=C1COc2ccc(C3(O)c4ccccc4C(=O)N3Cc3ccccc3Cl)cc2N1` (stereo not drawn) [Entry 35, 6-{2-[(2-chlorophenyl)methyl]-1-hydroxy-3-oxo-2,3-dihydro-1H-isoindol-1-yl}-2H-1,4-benzoxazin-3(4H)-one], the IC50 on B-Raf (read-out: bRaf IC50) is at least 10 µM; on c-Raf (read-out: cRaf-1 IC50) it was 1 to 10 µM.
For `CCc1cccc(N2C(=O)c3ccccc3C2(O)c2ccc3c(c2)NC(=O)CO3)c1` (stereo not drawn) [Entry 76, 6-[2-(3-ethylphenyl)-1-hydroxy-3-oxo-2,3-dihydro-1H-isoindol-1-yl]-2H-1,4-benzoxazin-3(4H)-one] the same measures were 0.1 to 1 µM and 0.1 to 1 µM.
The like results for `CCOC(=O)Nc1nc2cc(C3(O)c4ccccc4C(=O)N3Cc3ccccc3)ccc2[nH]1` (stereo not drawn) [Entry 96, ethyl {5-[1-hydroxy-3-oxo-2-(phenylmethyl)-2,3-dihydro-1H-isoindol-1-yl]-1H-benzimidazol-2-yl}carbamate] were, in that order, at least 10 µM and at least 10 µM.
In the case of `COC(=O)Nc1nc2cc(C3(O)c4ccccc4C(=O)N3C(C)c3cc(F)cc(F)c3)ccc2[nH]1` (stereo not drawn) [Entry 165, methyl (5-{2-[1-(3,5-difluorophenyl)ethyl]-1-hydroxy-3-oxo-2,3-dihydro-1H-isoindol-1-yl}-1H-benzimidazol-2-yl)carbamate], the IC50 was in the range of 1 to 10 µM at B-Raf (read-out: bRaf IC50) and 0.1 to 1 µM on c-Raf (read-out: cRaf-1 IC50).
For `COC(=O)Nc1nc2cc(C3(O)c4ccccc4C(=O)N3Cc3ccccc3OC)ccc2[nH]1` (stereo not drawn) [Entry 116, methyl [5-(1-hydroxy-2-{[2-(methyloxy)phenyl]methyl}-3-oxo-2,3-dihydro-1H-isoindol-1-yl)-1H-benzimidazol-2-yl]carbamate] the same measures were 1 to 10 µM and 1 to 10 µM.
Take `CN1CCC[C@H]1COC(=O)Nc1nc2ccc(C3(O)c4ccccc4C(=O)N3c3cccc(Cl)c3F)cc2[nH]1` (stereo partly drawn) [Entry 303, [(2S)-1-methylpyrrolidin-2-yl]methyl {6-[2-(3-chloro-2-fluorophenyl)-1-hydroxy-3-oxo-2,3-dihydro-1H-isoindol-1-yl]-1H-benzimidazol-2-yl}carbamate]: the IC50 on B-Raf (setting [1]) and on c-Raf (setting [2]) was under 0.1 µM each time.
In the case of `COC(=O)Nc1nc2ccc(C3(O)c4ccccc4C(=O)N3Cc3cccc(F)c3)cc2[nH]1` (stereo not drawn) [Entry 114, methyl (6-{2-[(3-fluorophenyl)methyl]-1-hydroxy-3-oxo-2,3-dihydro-1H-isoindol-1-yl}-1H-benzimidazol-2-yl)carbamate], the IC50 on B-Raf (read-out: bRaf IC50) and on c-Raf (read-out: cRaf-1 IC50) was under 0.1 µM throughout.
As to `CN1CCC(COC(=O)Nc2nc3cc(C4(O)c5ccccc5C(=O)N4c4cccc(Cl)c4F)ccc3[nH]2)CC1` (stereo not drawn) [Entry 316, (1-methylpiperidin-4-yl)methyl {5-[2-(3-chloro-2-fluorophenyl)-1-hydroxy-3-oxo-2,3-dihydro-1H-isoindol-1-yl]-1H-benzimidazol-2-yl}carbamate], the IC50 on B-Raf (setting [1]) and at c-Raf (setting [2]) was under 0.1 µM each time.
Regarding `CN(C)C(=O)Nc1nc2cc(C3(O)c4ccccc4C(=O)N3Cc3ccccc3)ccc2[nH]1` (stereo not drawn) [Entry 158, N′-{5-[1-hydroxy-3-oxo-2-(phenylmethyl)-2,3-dihydro-1H-isoindol-1-yl]-1H-benzimidazol-2-yl}-N,N-dimethylurea], the IC50 at B-Raf (read-out: bRaf IC50) and at c-Raf (read-out: cRaf-1 IC50) was under 0.1 µM each time.
Regarding `O=C1COc2ccc(C3(O)c4ccccc4C(=O)N3c3cccc(O)c3)cc2N1` (stereo not drawn) [Entry 78, 6-[1-hydroxy-2-(3-hydroxyphenyl)-3-oxo-2,3-dihydro-1H-isoindol-1-yl]-2H-1,4-benzoxazin-3(4H)-one], the IC50 at B-Raf (read-out: bRaf IC50) and on c-Raf (read-out: cRaf-1 IC50) was 1 to 10 µM in each case.
On to `COC(=O)Nc1nc2cc(C3(O)c4ccccc4C(=O)N3c3cccc(OC(F)(F)C(F)F)c3)ccc2[nH]1` (stereo not drawn) [Entry 255, methyl [5-(1-hydroxy-3-oxo-2-{3-[(1,1,2,2-tetrafluoroethyl)oxy]phenyl}-2,3-dihydro-1H-isoindol-1-yl)-1H-benzimidazol-2-yl]carbamate], for which the IC50 at B-Raf (read-out: bRaf IC50) and at c-Raf (read-out: cRaf-1 IC50) was 1 to 10 µM each time.
